According to PMC10487733, “Synthesis, Conformational Analysis and Antitumor Activity of the Naturally Occurring Antimicrobial Medium-Length Peptaibol Pentadecaibin and Spin-Labeled Analogs Thereof” (International Journal of Molecular Sciences, 2023):
Where a SMILES comes first, the peptide text is derived from it. [ ]: non-standard residue; d: D form. TOAC = CC1(C)CC(N)(C(=O)O)CC(C)(C)N1[O]; Phe(ol) = N[C@H](CO)Cc1ccccc1; Aib = CC(C)(N)C(=O)O

What was measured:
[1] = Peptide-induced carboxyfluorescein leakage from PC/Ch liposomes; details: PC/Ch 7:3 SUVs 0.06 mM, HEPES pH 7.4, 20 min incubation, fluorescence 488/520 nm, relative to Triton X-100; qualitative; more efficient than trichogin GA IV
Description: (§1) The assay was carried out on model liposomes (small unilamellar vesicles, SUV) of two different compositions, namely phosphatidylcholine/cholesterol (PC/Ch) 7:3 and phosphatidylethanolamine/phosphatidylglycerol (PE/PG) 7:3. Using fluorescence measurements, the ability of the peptides to induce the release of the carboxyfluorescein (CF) dye previously included within SUVs was evaluated.
(§2) The chosen lipid compositions result in different net surface charges on the SUVs. […] On the other hand, when the peptide perturbs the artificial membrane, it causes the leakage of the CF, and therefore leads to an increase in fluorescence intensity. The maximum value of fluorescence intensity, corresponding to the complete destruction of the vesicles via the surfactant Triton X-100, was used as a reference. […]
(§3) Phosphatidylcholine (PC), phosphatidylglycerol (PG), phosphatidylethanolamine (PE) and cholesterol (Ch) were purchased from Avanti Polar Lipids (Alabaster, AL, USA). […] To evaluate the peptide ability to modulate membrane permeability, CF leakage from the liposomes was measured via fluorescence spectroscopy on a Perkin Elmer (Waltham, MA, USA) MPF-66 spectrofluorimeter. The procedure was as follows: 2.5 mL of each SUV at 0.06 mM concentration was inserted in twelve disposable fluorescence cuvettes and fluorescence was recorded (λexc = 488 nm) for all of them at 520 nm (F0). […]

[2] = Peptide-induced carboxyfluorescein leakage from PE/PG liposomes; details: PE/PG 7:3 SUVs 0.06 mM, HEPES pH 7.4, 20 min incubation, fluorescence 488/520 nm, relative to Triton X-100; qualitative; more efficient than trichogin GA IV, particularly on these SUVs
Description: as §1, §2, §3

[3] = Circular dichroism in SDS micelles (helix aggregation index); format: physicochemical; details: CD in 100 mM aqueous SDS micelles, 25 °C, 1 mm cell, 16 scans; ratio is ≈ 0.9 in CH3OH
Description: We performed a CD analysis of the peptides in methanol and in the presence of micelles of sodium dodecyl sulfate (SDS) 100 mM in water.
CD spectra of α-helical peptides feature two negative and one positive maxima centered at about 208, 222 and 195 nm, respectively. Aib-containing peptides are known to fold in 3_10-helices, which is common for peptaibols. In this case, the first negative maximum shifts from 208 to about 205 nm.
CD measurements were acquired on a Jasco J-1500 spectrophotometer (Tokyo, Japan), using a 1 mm pathlength quartz cell (Hellma Analytics, Munich, Germany). Methanol or a solution of sodium dodecyl sulfate (SDS) 100 mM in milliQ water was used as solvent. An amount of 1 mM of solutions of the three peptides in each of the two solvents of choice was prepared. Then, 300 µL of each solution was inserted in the 1 mm quartz cell and the cell put into the cell holder of the Jasco J-1500 instrument. The measurements were performed at 25 °C, acquiring 16 scans. The temperature was kept constant by means of an external Peltier thermostat (ThermoHaake C25P, Karlbruhe, Germany).

[4] = system: MDA-MB-231 (human triple-negative breast cancer); details: MDA-MB-231 cells, 24 h exposure to 0–20 µM peptaibol, MTS read-out at 490 nm; value [95% CI]; at least three independent experiments in triplicate
[5] = system: SK-OV-3 (human ovarian adenocarcinoma); details: SK-OV-3 cells, 24 h exposure to 0–20 µM peptaibol, MTS read-out at 490 nm; value [95% CI]; at least three independent experiments in triplicate
[6] = system: A549 (human lung adenocarcinoma); details: A549 cells, 24 h exposure to 0–20 µM peptaibol, MTS read-out at 490 nm; value [95% CI]; at least three independent experiments in triplicate
[7] = system: MUG-Mel2 (human melanoma); details: MUG-Mel2 cells, 24 h exposure to 0–20 µM peptaibol, MTS read-out at 490 nm; CI not given; at least three independent experiments in triplicate

Structure (SMILES)	membrane activity (CF leakage from SUVs) [1]	membrane activity (CF leakage from SUVs) [2]	ratio R = [θ]222/[θ]208 (index of aggregation between helices) [3]	IC50 [4]	IC50 [5]	IC50 [6]	IC50 [7]
CC(=O)NC(C)(C)C(=O)NCC(=O)N[C@@H](C)C(=O)N[C@@H](CC(C)C)C(=O)NC(C)(C)C(=O)N[C@@H](CCC(N)=O)C(=O)NC(C)(C)C(=O)N[C@H](C(=O)NC(C)(C)C(=O)N[C@@H](C)C(=O)NC(C)(C)C(=O)NC(C)(C)C(=O)NC(C)(C)C(=O)N[C@@H](CCC(N)=O)C(=O)N[C@H](CO)Cc1ccccc1)C(C)C [VX, pentadecaibin] (Ac-[Aib]GAL[Aib]Q[Aib]V[Aib]A[Aib][Aib][Aib]Q[Phe(ol)])	equally membrane active	equally membrane active	greater than 1	8.79 µM	11.1 µM	9.1 µM	14.2 µM
CC(=O)NC(C)(C)C(=O)NCC(=O)N[C@@H](C)C(=O)N[C@@H](CC(C)C)C(=O)NC(C)(C)C(=O)N[C@@H](CCC(N)=O)C(=O)NC(C)(C)C(=O)N[C@H](C(=O)NC(C)(C)C(=O)N[C@@H](C)C(=O)NC1(C(=O)NC(C)(C)C(=O)NC(C)(C)C(=O)N[C@@H](CCC(N)=O)C(=O)N[C@H](CO)Cc2ccccc2)CC(C)(C)N([O])C(C)(C)C1)C(C)C [To11-VX, [Toac^11]-pentadecaibin] (Ac-[Aib]GAL[Aib]Q[Aib]V[Aib]A[TOAC][Aib][Aib]Q[Phe(ol)])	–	–	greater than 1	8.04 µM	–	9.7 µM	13.6 µM
CC(=O)NC1(C(=O)NCC(=O)N[C@@H](C)C(=O)N[C@@H](CC(C)C)C(=O)NC(C)(C)C(=O)N[C@@H](CCC(N)=O)C(=O)NC(C)(C)C(=O)N[C@H](C(=O)NC(C)(C)C(=O)N[C@@H](C)C(=O)NC(C)(C)C(=O)NC(C)(C)C(=O)NC(C)(C)C(=O)N[C@@H](CCC(N)=O)C(=O)N[C@H](CO)Cc2ccccc2)C(C)C)CC(C)(C)N([O])C(C)(C)C1 [To1-VX, [Toac^1]-pentadecaibin] (Ac-[TOAC]GAL[Aib]Q[Aib]V[Aib]A[Aib][Aib][Aib]Q[Phe(ol)])	–	–	greater than 1	7.98 µM	9.56 µM	11.1 µM	10.1 µM
